Measurements published in paper PMC10890666, “Targeted Affinity Purification and Mechanism of Action of Angiotensin-Converting Enzyme (ACE) Inhibitory Peptides from Sea Cucumber Gonads” (Marine Drugs, 2024).
Like-named read-outs stand apart in the source and are kept apart here. Blank lines part the entries; values can stand above or below the molecule they belong to.

Experiments:
[1] = target: angiotensin-converting enzyme (ACE); settings: cited from earlier work; for IC50: read-out: IC50 (ACE inhibition)
Text: The immobilization of ACE using various immobilization media is a promising affinity purification method to obtain shorter peptides from diverse sources. […] Feng et al. used a novel affinity medium Fe3O4@ZIF-90 and combined this method with reversed-phase high-performance liquid chromatography (RP-HPLC) and MALDI-TOF mass spectrometry to purify ... || Collectively, low-molecular-weight fractions isolated from SCGHs using the ultrafiltration method allowed us to obtain small peptides with potent ACE inhibitory activity. ACE inhibitory molecules are typically characterized by their small and short-chain peptide structures. In this study, a combination of ultrafiltration separation and SCGH effectively eliminated substances above 3 kDa. We further isolated the active components by utilizing an ACE enzyme affinity column, which facilitated the removal of other nonspecifically bound substances and yielded the target peptides. […] For instance, the experimentally purified short peptide DDQYHIF features Phe at the C-terminus, while HDWWKER has basic amino acids Arg and His at the C- and N-termini, respectively. Sun et al. reported that peptides with Arg at the C-termi ...

[2] = target: T1, angiotensin-I-converting enzyme (ACE) (UniProt P12822 34-1260); test: cell-based or functional assay
T1 sequence (looked up): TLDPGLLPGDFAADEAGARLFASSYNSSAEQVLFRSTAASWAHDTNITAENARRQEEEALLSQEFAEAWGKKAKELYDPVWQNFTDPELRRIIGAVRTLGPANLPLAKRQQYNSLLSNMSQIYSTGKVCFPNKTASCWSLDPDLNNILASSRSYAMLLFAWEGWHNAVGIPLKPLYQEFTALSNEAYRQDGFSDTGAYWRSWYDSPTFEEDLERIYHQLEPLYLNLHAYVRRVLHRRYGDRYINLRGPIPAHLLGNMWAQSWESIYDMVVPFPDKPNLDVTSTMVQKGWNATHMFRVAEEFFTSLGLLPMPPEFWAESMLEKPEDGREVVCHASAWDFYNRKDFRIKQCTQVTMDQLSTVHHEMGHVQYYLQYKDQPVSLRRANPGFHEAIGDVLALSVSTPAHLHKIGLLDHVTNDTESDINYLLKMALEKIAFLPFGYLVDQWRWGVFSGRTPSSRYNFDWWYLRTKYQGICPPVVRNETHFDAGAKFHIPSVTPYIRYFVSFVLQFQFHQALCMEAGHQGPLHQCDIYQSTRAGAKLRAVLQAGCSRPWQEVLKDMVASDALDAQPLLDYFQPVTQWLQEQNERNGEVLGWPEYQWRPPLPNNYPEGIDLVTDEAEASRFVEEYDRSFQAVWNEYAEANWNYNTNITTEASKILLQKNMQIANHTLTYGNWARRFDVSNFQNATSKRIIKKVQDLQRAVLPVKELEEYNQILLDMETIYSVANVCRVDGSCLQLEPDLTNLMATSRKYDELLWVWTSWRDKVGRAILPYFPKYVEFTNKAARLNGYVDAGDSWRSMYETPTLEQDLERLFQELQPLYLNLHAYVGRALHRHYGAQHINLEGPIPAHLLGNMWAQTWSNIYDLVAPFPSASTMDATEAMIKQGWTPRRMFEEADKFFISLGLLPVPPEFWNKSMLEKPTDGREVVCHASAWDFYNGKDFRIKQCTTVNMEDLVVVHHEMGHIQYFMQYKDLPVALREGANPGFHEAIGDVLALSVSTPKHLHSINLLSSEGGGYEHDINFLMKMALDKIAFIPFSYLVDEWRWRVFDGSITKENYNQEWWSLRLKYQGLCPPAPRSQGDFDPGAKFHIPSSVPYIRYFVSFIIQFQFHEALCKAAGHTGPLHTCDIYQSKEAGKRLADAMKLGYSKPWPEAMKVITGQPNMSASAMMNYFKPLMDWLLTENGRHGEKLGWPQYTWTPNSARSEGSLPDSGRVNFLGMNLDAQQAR

[3] = from Ulva intestinalis, ref [32]

Molecule: EIYR
IC50 ([1]; from sea cucumber gonads, ref Zhong et al. (2018)): 348 µM

Molecule: FGMPLDR
IC50 [1, 3]: 219 µM

Molecule: GMKCA
ACE inhibition (in words) ([1]; ref [9]): ACE inhibitory peptide
IC50 ([1]; ref [9]): 45.7 µM

Molecule: KNFL
ACE inhibition (in words) ([1]; from Undaria pinnatifida, ref [8]): ACE inhibitory peptide

Molecule: LLYQEPVLGPVR
ACE inhibition (in words) ([1]; from casein hydrolysate, ref [7]): potent ACE inhibitory peptide

Molecule: MELVLR
IC50 [1, 3]: 237 µM

Molecule: TLRFALHGME [novel peptide from Takifugu flavidus hydrolysate]
IC50 ([1]; from Takifugu flavidus hydrolysate, ref [17]): 93.5 µM

IC50 of ACE inhibition (HHL substrate, HPLC) [2]: 334 µM
B1: DDQYHIF (peptide)
peptide: DDQYHIF

IC50 of ACE inhibition (HHL substrate, HPLC) [2]: 1290 µM
B2: THDWWKER (peptide)
peptide: THDWWKER

IC50 of ACE inhibition (HHL substrate, HPLC) [2]: 584 µM
B3: HDWWKER (peptide)
peptide: HDWWKER
